Measurements published in patent US20130116251A1, “Novel HSP90 Inhibitor” (Nippon Kayaku Kabushiki Kaisha, priority 2005, published 2013).
Counter-ions that a name gives are not always drawn. Like-named read-outs stand apart in the source and are kept apart here.

How the values were obtained:
[1] = biological target: rHSP90; assay: HSP90 binding assay (BIACORE SPR; inhibition of binding between rHSP90 and fixed herbimycin A); conditions: concentration inhibiting binding between rHSP90 (50 μg/mL) and fixed herbimycin A by 50%, BIACORE-X SPR; read-out: HSP90 inhibitory activity IC50
From the text: The HSP90 binding assay system is a system for detecting the change of mass as SPR signal caused by the binding between herbimycin A fixed on a sensor chip and rHSP90 by BIACORE-X, in which 17-(6-amino hexylamino)herbimycin A is fixed through a carboxyl group on the surface of the sensor chip (CM5, BIACORE) on which carboxymethyldextran has been introduced. The method was according to the protocol of BIACORE. In addition, 17-(6-aminohexylamino)herbimycin A was synthesizes as described below.
rHSP90 (Stressgen Biotechnologies Corp., Victoria, BC Canada) at 50 μg/mL was exposed for 10 seconds to the surface of the sensor chip on which herbimycin A was fixed and the SPR signal (numerical value of interaction) was detected.
After mixing rHSP90 protein (5×10^−7M (50 μg/mL)) with the triazole derivative of the present invention, the mixture was exposed for 10 seconds to the surface of the sensor chip on which herbimycin A was fixed, and the SPR signal was measured by BIACORE-X.
Next, using following formula (1), the inhibitory activity (binding inhibition rate (%)) of the compound of the present invention to the binding between rHSP90 and fixed herbimycin A was obtained.
binding inhibition rate(%)=((b−s)/b)×100 Formula (1)
wherein b is the SPR signal when the compound of the present invention is not added to the sample: s is the SPR signal when the compound of the present invention is added to the sample.

[2] = system: Human breast cancer cells (MCF7); assay: Antiproliferative activity on MCF7 cells (methylene blue method); format: cell-based; conditions: MCF7 cells, 72 hours treatment, 660 nm absorbance after methylene blue staining, read-out: Antiproliferative activity IC50
Procedure: Human breast cancer cells (MCF7) were treated with samples of various concentrations of known HSP90 inhibitors (that is, geldanamycin, herbimycin, radicicol and PU3) and the compounds of the present invention for 72 hours to confirm the effect of the triazole derivatives of the present invention on the cell growth. The cell ratio after the drug treatment was evaluated by measuring 660 nm absorbance by a microplate reader (BioRad) after staining the cells with the methylene blue method.
Cells were distributed to wells of 96 well plates at 2000 cells per well and treated with drugs 24 hours later. Further, the medium was removed 72 hours later and the cells were fixed by adding 50 μl of methanol and standing at room temperature for 2 minutes. After removing methanol, 100 μl of a staining solution was added and stained for 30 minutes. After washing 3 times with 200 μl of distilled water, 3% HCl solution was added, and the 660 nm absorbance of methylene blue was measured by a microplate reader (BioRad).
Next, the antiproliferative activity rate (%) was obtained by the formula (2) below.
Antiproliferative activity rate(%)=((B−A)/B)×100 Formula (2)
wherein B is 660 nm absorbance of the sample when the compound of the present invention is not added, and A is 660 nm absorbance of the sample when the compound of the present invention is added.
From the concentration of the triazole derivative of the present invention and the antiproliferative activity rate, the concentration was obtained using the above formula, at which the cell growth was suppressed by 50% by comparing with the control, and termed an IC50 value.
The antiproliferative activity rate (%) was obtained for SH-b04, SH-b05 and SH-b06 described above by a similar manner to that of the triazole derivatives of the present invention.

Row | Structure (SMILES) | IC50 [1] | IC50 ([2]; Homo sapiens, MCF7, 72 h) | IC50 [2]
1 | CC(C)c1cc(-c2nnc(S(C)(=O)=O)n2C(C)C)c(O)cc1O [SFN-a21, 4-isopropyl-6-(4-isopropyl-5-methanesulfonyl-4H-[1,2,4]triazol-3-yl)-benzene-1,3-diol] | 230 nM | 16000 nM | 
2 | CC(C)c1cc(-c2nnc(S(C)(=O)=O)n2CCCN2CCCC2=O)c(O)cc1O [SFN-a30] | 2400 nM | > 20000 nM | 
3 | COCCn1c(-c2cc(C(C)C)c(O)cc2O)nnc1S(C)(=O)=O [SFN-a32, 4-isopropyl-6-[5-methanesulfonyl-4-(2-methoxy-ethyl)-4H-[1,2,4]triazol-3-yl]-benzene-1,3-diol] | 1900 nM | > 20000 nM | 
4 | CC(C)c1cc(-c2nnc(S(C)(=O)=O)n2C(CO)CO)c(O)cc1O [SFN-a33, 4-[4-(2-hydroxy-1-hydroxymethyl-ethyl)-5-methanesulfonyl-4H-[1,2,4]triazol-3-yl]-6-isopropyl-benzene-1,3-diol] | 1300 nM | 15000 nM | 
5 | CC(C)c1cc(-c2n[nH]c(=S)n2-c2cccnc2)c(O)cc1O [SH-a16] | 140 nM | 240 nM | 
6 | CC(C)c1cc(-c2n[nH]c(=S)n2C(C)C)c(O)cc1O [SH-a21, 5-(2,4-dihydroxy-5-isopropyl-phenyl)-4-isopropyl-2,4-dihydro-[1,2,4]-triazol-3-thione] | 220 nM | 400 nM | 
7 | CC(C)Cn1c(-c2cc(C(C)C)c(O)cc2O)n[nH]c1=S [SH-a22, 5-(2,4-dihydroxy-5-isopropyl-phenyl)-4-isobutyl-2,4-dihydro-[1,2,4]triazol-3-thione] | 270 nM | 450 nM | 
8 | CC(C)c1cc(-c2n[nH]c(=S)n2C2CCCCC2)c(O)cc1O [SH-a23, 5-(2,4-dihydroxy-5-isopropyl-phenyl)-4-cyclohexyl-2,4-dihydro-[1,2,4]triazol-3-thione] | 420 nM | 330 nM | 
9 | CC(C)c1cc(-c2n[nH]c(=S)n2CCc2cccnc2)c(O)cc1O [SH-a28, 5-(2,4-dihydroxy-5-isopropylphenyl)-4-(2-pyridin-3-ylethyl)-2,4-dihydro-[1,2,4]triazol-4-thione] | 430 nM | 7200 nM | 
10 | CC(C)c1cc(-c2n[nH]c(=S)n2CC2CCCO2)c(O)cc1O (centres unmarked) [SH-a31, 5-(2,4-dihydroxy-5-isopropylphenyl)-4-(tetrahydrofuran-2-ylmethyl)-2,4-dihydro-[1,2,4]triazol-3-thione] | 310 nM | 550 nM | 
11 | COCCn1c(-c2cc(C(C)C)c(O)cc2O)n[nH]c1=S [SH-a32, 5-(2,4-dihydroxy-5-isopropyl-phenyl)-4-(2-methoxy-ethyl)-2,4-dihydro-[1,2,4]triazol-3-thione] | 240 nM | 550 nM | 
12 | Oc1ccc(-c2nnc(S)n2-c2ccccc2)c(O)c1 [SH-b04, reference compound] | 170 nM | 5700 nM | 
13 | Cc1ccccc1-n1c(S)nnc1-c1ccc(O)cc1O [SH-b05, reference compound] | 200 nM | 9000 nM | 
14 | COc1ccc(OC)c(-n2c(S)nnc2-c2ccc(O)cc2O)c1 [SH-b06, reference compound] | 690 nM | 77000 nM | 
15 | COc1ccc(-n2c(-c3cc(C(C)(C)C)c(O)cc3O)n[nH]c2=S)cc1 [SH-f08] | 560 nM | 3000 nM | 

Further lines, results first:

Row | IC50 [1] | IC50 ([2]; Homo sapiens, MCF7, 72 h) | IC50 [2] | Structure (SMILES)
16 | 720 nM | 720 nM |  | COc1ccc(-n2c(-c3cc(C(C)C)c(O)cc3O)nnc2S(=O)(=O)CC2CCCCO2)cc1 (centres unmarked) [SFN7-a08, 4-isopropyl-6-[4-(4-methoxy-phenyl)-5-(tetrahydro-pyran-2-ylmethanesulfonyl)-4H-[1,2,4]triazol-3-yl]-benzene-1,3-diol]
17 | 600 nM | 2400 nM |  | COCCOCCS(=O)(=O)c1nnc(-c2cc(C(C)C)c(O)cc2O)n1-c1ccc(OC)cc1 [SFN8-a08, 4-isopropyl-6-{5-[2-(2-methoxy-ethoxy)-ethanesulfonyl]-4-(4-methoxy-phenyl)-4H-[1,2,4]triazol-3-yl}-benzene-1,3-diol]
18 | 320 nM | 24000 nM |  | CC(C)c1cc(-c2nnc(S(C)(=O)=O)n2-c2ccc(C[N+]3([O-])CCOCC3)cc2)c(O)cc1O [SFN-a07, 4-isopropyl-6-{5-methanesulfonyl-4-[4-(morpholin-4-oxid-4-ylmethyl)-phenyl]-4H-[1,2,4]triazol-3-yl}benzene-1,3-diol]
19 | 1600 nM | > 20000 nM |  | CC(C)c1cc(-c2nnc(S(C)(=O)=O)n2CCCN2CCOCC2)c(O)cc1O [SFN-a27, 4-isopropyl-6-[5-methanesulfonyl-4-[3-(molpholin-4-yl)-propyl]-4H-[1,2,4]triazol-3-yl]-benzene-1,3-diol]
20 | 3600 nM | > 20000 nM |  | CC(C)c1cc(-c2nnc(S(C)(=O)=O)n2CCc2ccc[n+]([O-])c2)c(O)cc1O [SFN-a29, 5-(2,4-dihydroxy-5-isopropylphenyl)-4-[2-(1-oxopyridin-3-yl)ethyl]-3-methanesulfonyl-4H-[1,2,4]triazole]
21 | 64 nM | 12000 nM |  | CC(C)c1cc(-c2nnc([S+](C)[O-])n2-c2ccc(C[N+]3([O-])CCOCC3)cc2)c(O)cc1O (centres unmarked) [SFX-a07-TF, 4-isopropyl-6-{5-methylsulfinyl-4-[4-(morpholin-4-oxid-4-ylmethyl)-phenyl]-4H-[1,2,4]triazol-3-yl}-benzene-1,3-diol trifluoroacetate]
22 | 120 nM | 360 nM |  | COc1ccc(-n2c(-c3cc(C(C)C)c(O)cc3O)nnc2[S+](C)[O-])cc1 (centres unmarked) [SFX-a08, 4-isopropyl-6-[5-methylsulfinyl-4-(4-methoxy-phenyl)-4H-[1,2,4]triazol-3-yl]-benzene-1,3-diol]
23 | 140 nM |  | 14 nM | CC(C)c1cc(-c2n[nH]c(=S)n2-c2ccc(N3CCOCC3)cc2)c(O)cc1O [SH-a01, 4-isopropyl-6-{5-mercapto-4-[4-(morpholin-4-yl)-phenyl]-4H-[1,2,4]triazol-3-yl}-benzene-1,3-diol]
24 | 190 nM | 20 nM |  | CC(C)c1cc(-c2n[nH]c(=S)n2-c2ccc(N3CCOCC3)cc2)c(O)cc1O [SH-a01-TF, 4-isopropyl-6-{5-mercapto-4-[4-(morpholin-4-yl)-phenyl]-4H-[1,2,4]triazol-3-yl}-benzene-1,3-diol]
25 | 150 nM | 150 nM |  | CC(C)c1cc(-c2n[nH]c(=S)n2-c2ccc(Br)cc2)c(O)cc1O [SH-a03, 4-[4-(4-bromo-phenyl)-5-mercapto-4H-[1,2,4]triazol-3-yl]-6-isopropyl-benzene-1,3-diol]
26 | 85 nM | 57 nM |  | COc1ccc(-n2c(-c3cc(C(C)C)c(O)cc3O)n[nH]c2=S)cc1 [SH-a08, 5-(2,4-dihydroxy-5-isopropyl-phenyl)-4-(4-methoxy-phenyl)-2,4-dihydro-[1,2,4]-triazol-3-thione]
27 | 250 nM | 40 nM |  | CC(C)c1cc(-c2n[nH]c(=S)n2-c2ccccc2)c(O)cc1O [SH-a15]
28 | 1000 nM | 890 nM |  | CC(C)c1cc(-c2n[nH]c(=S)n2C2CCN(Cc3ccccc3)CC2)c(O)cc1O [SH-a25•TFA]
29 | 250 nM | 480 nM |  | CC#CCc1cc(-c2n[nH]c(=S)n2-c2ccc(CN3CCOCC3)cc2)c(O)cc1O [SH-c02-TF, 4-(but-2-ynyl)-6-{5-mercapto-4-[4-morpholin-4-ylmethyl]-phenyl}-4H-[1,2,4]trioazol-3-yl]-benzene-1,3-diol trifluoroacetate]
30 | 470 nM | 530 nM |  | CSc1nnc(-c2cc(C(C)C)c(O)cc2O)n1-c1ccc(CN2CCOCC2)cc1 [SMe-a02-TF, 4-isopropyl-6-{5-methylsulfanyl-4-[4-(morpholin-4-ylmethyl)-phenyl]-4H-[1,2,4]triazol-3-yl}-benzene-1,3-diol trifluoroacetate]
31 | 740 nM | 1800 nM |  | COc1ccc(-n2c(SCCN(C)C)nnc2-c2cc(C(C)C)c(O)cc2O)cc1 [SR2-a08, 4-[5-(3-dimethylamino-ethylsulfanyl)-4-(4-methoxy-phenyl)-4H-[1,2,4]triazol-3-yl]-6-isopropyl-benzene-1,3-diol]
